Test system: ROS content in breast tumor cells MDA-MB-453
Experiment: reactive oxygen species method
Type: cell-based, human
Details: 40 μM
Experimental: In FIG. 12, the reactive oxygen species method was used to detect the effect of increased treatment doses of the compound II on the ROS content in breast tumor cells, and a photograph was taken at a 200× field under the fluorescence microscope. In the intracellular reactive oxygen species method, the cells were planted in a 24-well plate (5×10^4 cells/well). The next day after the cells were adhered to the wall, the cells were cultured in a serum free DMEM culture medium at an atmosphere of 5% CO2 in an incubator at 37° C. for 12 h. The compound II was added into the 1% FBS-DMEM culture medium, and the cells were cultured in the culture medium for 2 h. The cells were then washed with PBS. 100 ng/mL LPS was added to react with the cells, and then the cells were washed with PBS. […] The absorbance was measured by a fluorescence spectrometer, where the excitation wavelength was set as 485±20 nm, and the […] was set as 530±25 nm. […] Thus in the following the cells were treated with 40 μM the compound II and then the ROS content of cells was detected. […] FIG. 23 is a quantitative diagram showing the effect of increasing treatment time on the ROS content of breast tumor cells when the reactive oxygen species method was performed to detect the breast tumor cells treated with 40 μM the compound II. […]

Which “content of oxygen species compared with the control group” value does the source give for `COC1=C(OC)C(=O)C(C)=C(C)C1=O` [compound II] here?
The value was “higher”.

— patent publication US20150087722A1, “TREATMENT FOR BREAST TUMOR CELL METASTASIS” (China Medical University, priority 2012, published 2015)
